Data published in patent publication US12077503B2, “Substituted cyclic amides and their use as herbicides” (FMC CORPORATION, priority 2015, dated 2024).

Legend:
Assay type in all cases: in vivo
[1] = test system: pigweed (Amaranthus retroflexus); experiment: Test A postemergence; conditions: Amaranthus retroflexus, post-emergence, 240 h, read-out: Plant response rating, Pigweed
Summary of the method: (§1)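 Preemergence soil spray on seeded pots or post-emergence spray on 1–2 leaf plants, in loam–sand blend. Greenhouse ~10 d. Visual rating 0–100 against untreated plants.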

[2] = test system: barnyardgrass (Echinochloa crus-galli); experiment: Test A postemergence; conditions: Echinochloa crus-galli, post-emergence, 240 h, read-out: Plant response rating, Barnyardgrass
Summary of the method: as §1

[3] = test system: wheat (Triticum aestivum); experiment: Test A postemergence; conditions: Triticum aestivum, post-emergence, 240 h, read-out: Plant response rating, Wheat
Summary of the method: as §1

[4] = test system: blackgrass (Alopecurus myosuroides); experiment: Test A postemergence; conditions: Alopecurus myosuroides, post-emergence, 240 h, read-out: Plant response rating, Blackgrass
Summary of the method: as §1

[5] = test system: Galium (catchweed bedstraw, Galium aparine); experiment: Test A postemergence; conditions: Galium, post-emergence, 240 h, read-out: Plant response rating, Galium
Summary of the method: as §1

[6] = test system: giant foxtail (Setaria faberii); experiment: Test A postemergence; conditions: Setaria faberi, post-emergence, 240 h, read-out: Plant response rating, Foxtail, Giant
Summary of the method: as §1

[7] = test system: ragweed (common ragweed, Ambrosia elatior); experiment: Test A postemergence; conditions: Ambrosia artemisiifolia, post-emergence, 240 h, read-out: Plant response rating, Ragweed
Summary of the method: as §1

Kochia (Kochia scoparia) [8] = experiment: Test A postemergence; conditions: Bassia scoparia, post-emergence, 240 h, read-out: Plant response rating, Kochia
Summary of the method: as §1

[9] = test system: ryegrass, Italian (Italian ryegrass, Lolium multiflorum); experiment: Test A postemergence; conditions: Lolium multiflorum, post-emergence, 240 h, read-out: Plant response rating, Ryegrass, Italian
Summary of the method: as §1

corn (Zea mays) = experiment: Test A postemergence; conditions: Zea mays, post-emergence, 240 h
Summary of the method: as §1

[10] = test system: pigweed (Amaranthus retroflexus); experiment: Test A preemergence; conditions: Amaranthus retroflexus, pre-emergence, 240 h, read-out: Plant response rating, Pigweed
[11] = test system: barnyardgrass (Echinochloa crus-galli); experiment: Test A preemergence; conditions: Echinochloa crus-galli, pre-emergence, 240 h, read-out: Plant response rating, Barnyardgrass
Summary of the method: as §1

[12] = test system: giant foxtail (Setaria faberii); experiment: Test A preemergence; conditions: Setaria faberi, pre-emergence, 240 h, read-out: Plant response rating, Foxtail, Giant
Summary of the method: as §1

[13] = test system: ragweed (common ragweed, Ambrosia elatior); experiment: Test A preemergence; conditions: Ambrosia artemisiifolia, pre-emergence, 240 h, read-out: Plant response rating, Ragweed
Summary of the method: as §1

Kochia (Kochia scoparia) [14] = experiment: Test A preemergence; conditions: Bassia scoparia, pre-emergence, 240 h, read-out: Plant response rating, Kochia
Summary of the method: as §1

[15] = test system: ryegrass, Italian (Italian ryegrass, Lolium multiflorum); experiment: Test A preemergence; conditions: Lolium multiflorum, pre-emergence, 240 h, read-out: Plant response rating, Ryegrass, Italian
Summary of the method: as §1

[16] = 125 g ai/ha, postemergence, visual rating after approx. 10 d, 0 to 100 scale (0 no effect, 100 complete control)
[17] = Postemergence, 500 g ai/ha, 0 to 100 scale where 0 is no effect and 100 is complete control
[18] = 125 g ai/ha, Preemergence, visual injury after approximately 10 d, 0 to 100 scale where 0 is no effect and 100 is complete control
[19] = 500 g ai/ha, preemergence, 0 to 100 scale, 0 = no effect, 100 = complete control

In the case of `CN1C[C@H](c2ccc(C(F)(F)F)cc2)[C@@H](C(=O)Nc2cccc(F)c2F)C1=O` [Compound 623, (3S,4S)—N-(2,3-difluorophenyl)-1-methyl-2-oxo-4-[4-(trifluoromethyl)phenyl]-3-pyrrolidinecarboxamide], the pest or weed control at 125 g/ha [1, 16] is reported as 60%, the pest or weed control at 500 g/ha [1, 17] is reported as 60% and the pest or weed control at 125 g/ha [2, 16] is reported as 90%. The pest or weed control at 500 g/ha [2, 17] was 90%, the plant injury at 125 g/ha [3, 16] was 40% and the plant injury at 500 g/ha [3, 17] was 70%. For the same compound, the pest or weed control at 125 g/ha [4, 16] was 50%, the pest or weed control at 500 g/ha [4, 17] was 60% and the pest or weed control at 125 g/ha [5, 16] was 50%. For the same compound, the pest or weed control at 500 g/ha [5, 17] was 60%, the pest or weed control at 125 g/ha [6, 16] was 90% and the pest or weed control at 500 g/ha [6, 17] was 90%. For the same compound, the pest or weed control at 125 g/ha [7, 16] was 20%, the pest or weed control at 500 g/ha [7, 17] was 0% and the pest or weed control at 125 g/ha (Kochia (Kochia scoparia) [8]; [16]) was 40%. For the same compound, the pest or weed control at 500 g/ha (Kochia (Kochia scoparia) [8]; [17]) was 70%, the pest or weed control at 125 g/ha [9, 16] was 30% and the pest or weed control at 500 g/ha [9, 17] was 60%. It also gave a Corn plant response rating (crop injury, 0 = no effect, 100 = complete kill) at 125 g/ha (corn (Zea mays); [16]) of 60%, a Corn plant response rating (crop injury, 0 = no effect, 100 = complete kill) at 500 g/ha (corn (Zea mays); [17]) of 70% and a pest or weed control at 125 g/ha [10, 18] of 80%. The pest or weed control at 500 g/ha [10, 19] was 80%, the pest or weed control at 125 g/ha [11, 18] was 90% and the pest or weed control at 500 g/ha [11, 19] was 90%. The pest or weed control at 125 g/ha [12, 18] was 90%, the pest or weed control at 500 g/ha [12, 19] was 90% and the pest or weed control at 125 g/ha [13, 18] was 80%. For the same compound, the pest or weed control at 500 g/ha [13, 19] was 80%, the pest or weed control at 125 g/ha (Kochia (Kochia scoparia) [14]; [18]) was 60% and the pest or weed control at 500 g/ha (Kochia (Kochia scoparia) [14]; [19]) was 70%. The pest or weed control at 125 g/ha [15, 18] was 80% and the pest or weed control at 500 g/ha [15, 19] was 90%.
